From patent US20090170880A1, “Methods and Means for the Treatment of Cancer” (priority 2007, published 2009)
Values belong to the compound of their own block, whether it stands above or below them.

Columns and labels:
[1] = tested on: intracranial Mel57-luc tumor xenografts; test: Efficacy against intracranial Mel57-luc tumor xenografts; type: in vivo, nude mice; conditions: wild-type nude mice, elacridar oral 100 mg/kg/day×5 20-30 min before temozolomide oral 100 mg/kg/day×5
Procedure: Intracranial Mel57-luc (luciferase transfected subline) tumor xenografts in wild-type nude mice (WT) and mdr1ab knockout nude mice (MDR) were established according to the protocol below (see Kemper et al, Eur J Cancer 42:3294-3303, 2006).
The Mel57 cell line (University Medical Centre, Nijmegen, The Netherlands) is a human melanoma cell line and was cultured in MEM (Life Technologies Inc., Breda, The Netherlands) supplemented with 10% foetal calf serum, non-essential amino acids, streptomycin, penicillin and sodium pyruvate (all Life Technologies), and incubated at 37° C. and 5% CO2 in humidified air. The cell line was further transfected by standard protocols with lipofectamine using a pBS vector containing a β-actin driven luciferase gene coupled via an internal ribosome […] to GFP. After expansion, GFP bright cells were sorted to single cells by FACS, expanded and sublines tested for luciferase expression by an in vitro bioluminescence assay (Promega, Benelux BV, Leiden, The Netherlands). Three to five sublines showing the highest luminescence activity were tested in vivo for tumour take and intracranial growth behaviour. To retrieve tumour cells for injection, the cell culture was trypsinised (trypsin 0.05%; EDTA 0.02%, Life Technologies), washed two times with Hanks Balanced Saline Solution (HBSS, Life Technologies Inc.), counted and resuspended in an appropriate volume of HBSS. The single cell suspension was kept on ice until injection. […]
Mel57-luc cells (100,000 cells/2 μl) were injected stereotactically in the brain as described in detail in Kemper et al^14. […] The amount of bioluminescence in each animal was calculated relative to the first measurement when therapy was initiated (arbitrarily set at 100%) and was log converted prior to data analysis. Tumor volume was measured by bioluminescence activity (see Kemper et al, Eur J Cancer 42:3294-3303, 2006).

murine Bcrp1 = biological target: T1, murine Bcrp1 (Mus musculus, UniProt Q7TMS5); test: Transwell transport of temozolomide, MDCKII-Bcrp1 cells, without or with inhibitors; type: in vitro ADME; conditions: MDCKII-Bcrp1 cells
T1 construct: expressed in transfected cells; host or cells: MDCKII (canine kidney) cells transduced with murine Bcrp1
T1 sequence (Q7TMS5 1-657): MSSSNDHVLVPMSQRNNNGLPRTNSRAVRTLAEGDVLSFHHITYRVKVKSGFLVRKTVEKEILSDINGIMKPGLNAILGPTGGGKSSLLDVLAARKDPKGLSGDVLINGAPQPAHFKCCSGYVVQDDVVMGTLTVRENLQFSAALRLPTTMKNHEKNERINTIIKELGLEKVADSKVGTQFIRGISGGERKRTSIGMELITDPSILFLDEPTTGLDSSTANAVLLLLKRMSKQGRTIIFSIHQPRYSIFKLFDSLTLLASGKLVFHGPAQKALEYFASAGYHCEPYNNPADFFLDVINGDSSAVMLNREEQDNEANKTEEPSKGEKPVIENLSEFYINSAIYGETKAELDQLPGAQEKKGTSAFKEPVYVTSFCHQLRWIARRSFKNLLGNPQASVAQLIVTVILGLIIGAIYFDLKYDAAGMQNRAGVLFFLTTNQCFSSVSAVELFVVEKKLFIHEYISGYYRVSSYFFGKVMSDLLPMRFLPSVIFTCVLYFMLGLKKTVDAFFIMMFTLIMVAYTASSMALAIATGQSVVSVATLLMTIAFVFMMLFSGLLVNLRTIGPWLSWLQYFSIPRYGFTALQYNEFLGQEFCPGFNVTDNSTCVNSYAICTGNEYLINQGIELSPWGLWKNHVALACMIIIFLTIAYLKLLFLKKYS
Procedure: The parental LLC pig-kidney (PK1) cell line and sublines transduced with murine Mdr1a or human MDR1 (12) and the parental Madine Darby Canine Kidney (MDCK) and murine Bcrp1 or human BCRP transduced sublines (13) were seeded on Transwell microporous polycarbonate membrane filters (3.0 μm pore size, 24 mm diameter; Costar Corning, N.Y., USA) at a density of 1×10^6 cells per well in 2 ml of MEM medium (Invitrogen Corporation, Carlsbad, Calif.) containing 10% v/v fetal calf serum. Cells were incubated at 37° C. in 5% CO2 for three days with one medium replacement after the first day. Two hours before the start of the experiment the medium in both compartments was replaced with 2 ml of OptiMEM medium (InVitrogen Corp.). At the start of the experiment the medium in the apical or basolateral compartment was replaced with 2 ml of freshly prepared OptiMEM medium containing 40 μg/ml of temozolomide. […] Zosuquidar (LY335979, 5 μM) was always added to the medium when doing experiments with MDCK cell lines to inhibit endogenous canine P-gp. Samples of 50 μl were collected every 30 min, for up to 2 h after start of the experiment. Because temozolomide is instable in medium at 37° C., we replaced one ml of the donor compartment by a freshly prepared aliquot every 30 min. [^3H]-inulin (approximately 7 kBq per well) was added to the same compartment as temozolomide to check the integrity of the cell layer. Wells showing a leakage of more than 1.5% per hour were excluded.
First, we took samples every 30 min for up to 2 h instead of every hour for up to 4 h. Secondly, to maintain adequate temozolomide levels at the donor side throughout the experiment we replaced 1 ml of the 2 ml of medium at the donor side of the transwell at each sampling time by 1 ml of a freshly prepared temozolomide solution in medium.

P-gp and BCRP = test: Temozolomide brain and plasma levels at 2 h with or without oral inhibitor; type: in vivo; conditions: wild-type mice, inhibitor 100 mg/kg oral, 2 h after temozolomide
Procedure: The mice were anesthetized with metoxyflurane and blood samples were obtained by cardiac puncture and collected on ice in tubes containing potassium EDTA as anticoagulant. […] Immediately after cardiac puncture the mice were killed by cervical dislocation and the brains were dissected and placed on ice. Within 60 min they were weighed and homogenized in 3 ml of ice-cold 1% of BSA in 0.05 M phosphate buffer adjusted to pH 2 and stored at −20° C. until further analysis. […] The brain-to-plasma ratio was calculated for each individual animal. The two-sided unpaired Student's t-test was used for statistical analysis of AUC values. Bonferroni's test for multiple comparisons was calculated using SPSS (v12.0.1; […]

P-gp [2] = test: Transwell control experiments with radioactively labeled P-gp and BCRP substrates; type: in vitro ADME; conditions: inhibitor 20 μM, radiolabeled substrates, results not shown
Procedure: Similar experiments were conducted in the parental canine MDCK cells and its transduced murine Bcrp1 or human BCRP sublines. […] Together with these experiments we ran control experiments using well-established P-gp and BCRP substrates that were available to us as radioactively labeled compounds (^14C-trabectedin and ^14C-Indisulan, or ^14C-topotecan). […] Moreover, the integrity of all monolayers was checked using ^3H-inuline as marker compound. Wells showing more than 1.5% translocation of inuline per 30 min were considered to be leaky and excluded from the analysis.

[3] = in vivo; cited from earlier work
P-gp [4] = biological target: T2, P-gp (Mus musculus, UniProt P21447); conditions: Mdr1ab knockout mice; cited from earlier work
T2 construct: host or cells: mice (Mdr1ab knockout versus wild type)
T2 sequence (P21447 whole entry): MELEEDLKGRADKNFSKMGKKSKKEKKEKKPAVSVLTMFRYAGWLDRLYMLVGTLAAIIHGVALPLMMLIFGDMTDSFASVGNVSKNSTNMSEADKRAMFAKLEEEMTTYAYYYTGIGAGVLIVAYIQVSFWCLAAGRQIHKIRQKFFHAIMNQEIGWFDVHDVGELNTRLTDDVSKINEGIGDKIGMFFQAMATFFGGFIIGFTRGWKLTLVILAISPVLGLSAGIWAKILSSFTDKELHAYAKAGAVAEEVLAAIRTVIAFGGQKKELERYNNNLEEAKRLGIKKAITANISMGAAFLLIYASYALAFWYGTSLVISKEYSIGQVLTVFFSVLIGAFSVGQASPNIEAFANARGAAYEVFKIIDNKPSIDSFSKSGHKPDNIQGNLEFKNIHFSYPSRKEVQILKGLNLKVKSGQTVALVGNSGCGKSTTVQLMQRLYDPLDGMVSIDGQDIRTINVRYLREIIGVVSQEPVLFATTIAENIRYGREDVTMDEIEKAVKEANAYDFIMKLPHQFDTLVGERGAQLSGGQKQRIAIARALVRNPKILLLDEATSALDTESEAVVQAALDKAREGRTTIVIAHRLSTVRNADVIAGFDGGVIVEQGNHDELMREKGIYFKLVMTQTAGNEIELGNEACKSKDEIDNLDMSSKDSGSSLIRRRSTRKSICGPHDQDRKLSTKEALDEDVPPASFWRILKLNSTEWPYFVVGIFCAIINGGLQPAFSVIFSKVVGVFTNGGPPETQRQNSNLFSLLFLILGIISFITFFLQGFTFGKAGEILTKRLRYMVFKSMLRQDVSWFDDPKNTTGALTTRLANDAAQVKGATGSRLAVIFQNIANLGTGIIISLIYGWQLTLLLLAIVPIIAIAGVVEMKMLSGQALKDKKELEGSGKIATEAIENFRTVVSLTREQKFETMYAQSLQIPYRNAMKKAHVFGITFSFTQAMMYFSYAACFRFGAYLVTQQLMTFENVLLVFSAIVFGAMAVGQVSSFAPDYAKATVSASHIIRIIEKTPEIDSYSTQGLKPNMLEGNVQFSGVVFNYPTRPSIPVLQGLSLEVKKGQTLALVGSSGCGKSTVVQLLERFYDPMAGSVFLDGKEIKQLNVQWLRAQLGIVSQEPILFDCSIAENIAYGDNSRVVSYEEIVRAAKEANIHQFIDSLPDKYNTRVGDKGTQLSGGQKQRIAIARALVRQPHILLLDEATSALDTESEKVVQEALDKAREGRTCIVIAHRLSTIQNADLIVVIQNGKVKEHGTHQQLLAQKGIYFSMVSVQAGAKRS

SMILES: C#Cc1cccc(Nc2ncnc3cc(OCCOC)c(OCCOC)cc23)c1 [erlotinib]
effect on Bcrp1 mediated transport of temozolomide (murine Bcrp1; inhibitor 10 μM): (almost) completely abrogated

SMILES: COc1cc2ncnc(Nc3ccc(F)c(Cl)c3)c2cc1OCCCN1CCOCC1 [gefitinib]
effect on Bcrp1 mediated transport of temozolomide (murine Bcrp1; inhibitor 10 μM): (almost) completely abrogated | effect on temozolomide plasma level (P-gp and BCRP): significantly increased | inhibition of P-gp mediated transport (P-gp [2]): sufficient

SMILES: Cc1ccc(NC(=O)c2ccc(CN3CCN(C)CC3)cc2)cc1Nc1nccc(-c2cccnc2)n1 [imatinib]
oral bioavailability [3]: > 90%

SMILES: CC(=O)O[C@H]1C(=O)[C@@]2(C)[C@H]([C@H](OC(=O)c3ccccc3)[C@]3(O)C[C@H](OC(=O)[C@H](O)[C@@H](NC(=O)c4ccccc4)c4ccccc4)C(C)=C1C3(C)C)[C@]1(OC(C)=O)CO[C@@H]1C[C@@H]2O [paclitaxel]
brain-to-plasma ratio relative to wild-type controls (P-gp [4]): more than 5 fold

More lines, main results first:

effect on Bcrp1 mediated transport of temozolomide (murine Bcrp1; inhibitor 5 μM): (almost) completely abrogated
SMILES: COc1cc2c(cc1OC)CN(CCc1ccc(NC(=O)c3cccc4c(=O)c5cccc(OC)c5[nH]c34)cc1)CC2 [elacridar]
efficacy of temozolomide with elacridar versus temozolomide alone [1]: more effective than temozolomide alone

effect on Bcrp1 mediated transport of temozolomide (murine Bcrp1; inhibitor 50 μM): not sufficient
SMILES: CO[C@@H]1[C@@H](OC(N)=O)[C@@H](O)[C@H](Oc2ccc3c(O)c(NC(=O)c4ccc(O)c(CC=C(C)C)c4)c(=O)oc3c2C)OC1(C)C [novobiocin]
